In US8791143B2, “Anthranilic diamide derivatives having cyclic side-chains” (priority 2010, dated 2014) one finds pest or weed control and chromatographic logP data, which are given here for 34 molecules.

Structures are written as SMILES. Read-outs that look alike come from different tables or passages of the source.

For series [1], the system named is caterpillars of the armyworm (Spodoptera frugiperda). As to the kind of experiment: Spodoptera frugiperda test (SPODFR spray treatment). In kind it is in vivo. The conditions noted are these: Spodoptera frugiperda, 168 h, read-out: activity in % (caterpillars killed).
Series [2] has as its system larvae of the mustard beetle (Phaedon cochleariae). As to the kind of experiment: Phaedon test (PHAECO spray treatment). As to conditions: Phaedon cochleariae, 168 h, read-out: activity in % (beetle larvae killed).
Series [3] is described as follows: log P by HPLC on reversed-phase columns (EEC Directive 79/831 Annex V.A8). The format is physicochemical.
Where [4] appears, read: application rate 100 g/ha, after 7 days.
Setting [5] is: reversed-phase C18 HPLC column, pH 2.7, HPLC reversed-phase C18, acidic range pH 2.7 (HCOOH), only or first value of the cell, read-out: log P.

As for `COc1ccc(CNC(=O)c2cc(C#N)cc(C)c2NC(=O)c2cc(Cn3nnc(C(F)(F)F)n3)nn2-c2ccccc2Cl)cc1` [Example 76], the pest or weed control at 100 g/ha in series [1] (setting [4]) and in series [2] was 100% throughout. The chromatographic logP in series [3] (setting [5]) stood at 3.77.

Turning to `Cc1cc(Cl)cc(C(=O)NCc2ccc(C(F)(F)F)cn2)c1NC(=O)c1cc(Cn2nnc(C(F)(F)F)n2)nn1-c1ncccc1Cl` [Example 226], the pest or weed control at 100 g/ha in series [1] (setting [4]) and in series [2] was 100% throughout. Also, the chromatographic logP in series [3] (setting [5]) was 3.7.

As to `Cc1cc(C#N)cc(C(=O)NC2COC2)c1NC(=O)c1cc(Cn2nc(C(F)(F)F)nc2C(F)(F)F)nn1-c1ncccc1Cl` [Example 13], the pest or weed control at 100 g/ha in series [1] and in series [2] was 100% each time. Further, the chromatographic logP in series [3] (pH 2.7, log P) was determined as 2.95.

`Cc1cc(C#N)cc(C(=O)NCc2ccc(OC(F)F)cc2)c1NC(=O)c1cc(Cn2nnc(C(F)(F)F)n2)nn1-c1ccccc1Cl` [Example 191]: the pest or weed control at 100 g/ha in series [1] (setting [4]) and in series [2] was 100% throughout. Further, the chromatographic logP in series [3] (setting [5]) amounted to 3.81.

`O=C(NCc1ccc(OC(F)(F)F)cc1)c1cc(Br)cc(Cl)c1NC(=O)c1cc(Cn2nnc(C(F)(F)F)n2)nn1-c1ncccc1Cl` [Example 195]: the pest or weed control at 100 g/ha in series [1] (setting [4]) and in series [2] was 100% each time. Besides, the chromatographic logP in series [3] (setting [5]) was determined as 4.31.

In the case of `Cc1cc(C#N)cc(C(=O)NCc2ccc(Cl)nc2)c1NC(=O)c1cc(Cn2nnc(C(F)(F)F)n2)nn1-c1ncccc1Cl` [Example 66], the pest or weed control at 100 g/ha in series [1] and in series [2] was 100% throughout. The molecule further gave a chromatographic logP in series [3] (pH 2.7, log P) of 3.11.

Consider `Cc1cc(C#N)cc(C(=O)NCc2ccccc2OC(F)F)c1NC(=O)c1cc(Cn2nnc(C(F)(F)F)n2)nn1-c1ccccc1Cl` [Example 190], for which the pest or weed control at 100 g/ha in series [1] (setting [4]) and in series [2] was 100% throughout. Besides, the chromatographic logP in series [3] (setting [5]) turned out to be 3.88.

On to `Cc1cc(Cl)cc(C(=O)NC(C)c2cccc(Cl)c2Cl)c1NC(=O)c1cc(Cn2nnc(C(F)(F)F)n2)nn1-c1ncccc1Cl` (stereo not drawn) [Example 124], for which the pest or weed control at 100 g/ha in series [1] (setting [4]) and in series [2] was 100% throughout. Further, the chromatographic logP in series [3] (setting [5]) was 4.57.

For the molecule `CCc1cccc(CNC(=O)c2cc(Cl)cc(C)c2NC(=O)c2cc(Cn3nnc(C(F)(F)F)n3)nn2-c2ncccc2Cl)n1` [Example 228], the pest or weed control at 100 g/ha in series [1] and in series [2] was 100% throughout. For the same molecule, in series [3] (pH 2.7, log P), the chromatographic logP is 2.22.

Take `Cc1cc(C#N)cc(C(=O)NCc2cccc(OC(F)F)c2)c1NC(=O)c1cc(Cn2nnc(C(F)F)n2)nn1-c1ncccc1Cl` [Example 178]: the pest or weed control at 100 g/ha in series [1] (setting [4]) amounted to 83%; in series [2], 100%. Further, in series [3] (setting [5]), the chromatographic logP amounted to 3.08.

For the molecule `Cc1cc(Cl)cc(C(=O)NCc2ccc(F)cc2F)c1NC(=O)c1cc(Cn2nnc(C(F)(F)F)n2)nn1-c1ncccc1Cl` [Example 107], the pest or weed control at 100 g/ha in series [1] and in series [2] was 100% in each case. This molecule also registered a chromatographic logP in series [3] (pH 2.7, log P) of 3.9.

For `COC(=O)c1ccc(CNC(=O)c2cc(Cl)cc(C)c2NC(=O)c2cc(Cn3nnc(C(F)(F)F)n3)nn2-c2ncccc2Cl)cc1` [Example 127], the pest or weed control at 100 g/ha in series [1] (setting [4]) and in series [2] was 100% each time. Also, the chromatographic logP in series [3] (setting [5]) worked out at 3.68.

For `O=C(NCc1cccc(OC(F)(F)F)c1)c1cc(Br)cc(Cl)c1NC(=O)c1cc(Cn2nnc(C(F)(F)F)n2)nn1-c1ncccc1Cl` [Example 194], the pest or weed control at 100 g/ha in series [1] (setting [4]) and in series [2] was 100% each time. Further, the chromatographic logP in series [3] (setting [5]) turned out to be 4.32.

Regarding `Cc1cc(Cl)cc(C(=O)NCc2ccc(Cl)c(Cl)c2)c1NC(=O)c1cc(Cn2nnc(C(F)(F)F)n2)nn1-c1ncccc1Cl` [Example 93], the pest or weed control at 100 g/ha in series [1] and in series [2] was 100% each time. The molecule also had a chromatographic logP in series [3] (pH 2.7, log P) of 4.37.

As for `Cc1cc(Cl)cc(C(=O)NCC2(C)CCCO2)c1NC(=O)c1cc(Cn2nnc(C(F)(F)F)n2)nn1-c1ncccc1Cl` (stereo not drawn) [Example 61], the pest or weed control at 100 g/ha in series [1] and in series [2] was 100% in each case. The chromatographic logP in series [3] (pH 2.7, log P) came to 3.48.

As for `Cc1ccccc1C(C)NC(=O)c1cc(Cl)cc(C)c1NC(=O)c1cc(Cn2nnc(C(F)(F)F)n2)nn1-c1ncccc1Cl` (stereo not drawn) [Example 112], the pest or weed control at 100 g/ha in series [1] and in series [2] was 100% throughout. This molecule also gave a chromatographic logP in series [3] (pH 2.7, log P) of 4.2.

For the molecule `Cc1cc(C#N)cc(C(=O)NCc2ccc(Cl)cc2Cl)c1NC(=O)c1cc(Cn2nnc(C(F)(F)F)n2)nn1-c1ccccc1Cl` [Example 77], the pest or weed control at 100 g/ha in series [1] (setting [4]) and in series [2] was 100% throughout. Further, the chromatographic logP in series [3] (setting [5]) was 4.42.

On to `Cc1cccc(CNC(=O)c2cc(Cl)cc(C)c2NC(=O)c2cc(Cn3nnc(C(F)(F)F)n3)nn2-c2ncccc2Cl)c1` [Example 89], for which the pest or weed control at 100 g/ha in series [1] and in series [2] was 100% each time. Besides, in series [3] (pH 2.7, log P), the chromatographic logP was 4.08.

Turning to `Cc1cc(Cl)cc(C(=O)NC(C)c2ccc(Cl)cc2)c1NC(=O)c1cc(Cn2nnc(C(F)(F)F)n2)nn1-c1ncccc1Cl` (stereo not drawn) [Example 111], the pest or weed control at 100 g/ha in series [1] and in series [2] was 100% each time. In addition, the chromatographic logP in series [3] (pH 2.7, log P) came to 4.3.

As for `Cc1ccccc1CNC(=O)c1cc(Cl)cc(C)c1NC(=O)c1cc(Cn2nnc(C(F)(F)F)n2)nn1-c1ncccc1Cl` [Example 119], the pest or weed control at 100 g/ha in series [1] and in series [2] was 100% throughout. In series [3] (pH 2.7, log P), this molecule had a chromatographic logP of 4.03.

Consider `Cc1c(F)ccc(C(=O)NCc2ccccc2OC(F)(F)F)c1NC(=O)c1cc(Cn2nnc(C(F)(F)F)n2)nn1-c1ncccc1Cl` [Example 185], for which the pest or weed control at 100 g/ha in series [1] (setting [4]) and in series [2] was 100% throughout. Also, the chromatographic logP in series [3] (setting [5]) was determined as 4.04.

As for `Cc1c(F)ccc(C(=O)NCc2cccc(OC(F)(F)F)c2)c1NC(=O)c1cc(Cn2nnc(C(F)(F)F)n2)nn1-c1ncccc1Cl` [Example 186], the pest or weed control at 100 g/ha in series [1] (setting [4]) and in series [2] was 100% in each case. In addition, the chromatographic logP in series [3] (setting [5]) worked out at 4.07.

On to `Cc1c(F)ccc(C(=O)NCc2ccc(Cl)cc2)c1NC(=O)c1cc(Cn2nnc(C(F)(F)F)n2)nn1-c1ncccc1Cl` [Example 184], for which the pest or weed control at 100 g/ha in series [1] and in series [2] was 100% each time. In addition, in series [3] (pH 2.7, log P), the chromatographic logP amounted to 3.8.

With `Cc1cc(Cl)cc(C(=O)NCc2ccc(OC(F)(F)F)cc2)c1NC(=O)c1cc(Cn2nnc(C(F)(F)F)n2)nn1-c1ncccc1Cl` [Example 126], the pest or weed control at 100 g/ha in series [1] (setting [4]) and in series [2] was 100% throughout. Also, in series [3] (setting [5]), the chromatographic logP stood at 4.46.

In the case of `O=C(NCc1ccccc1OC(F)(F)F)c1cc(Cl)cc(F)c1NC(=O)c1cc(Cn2nnc(C(F)(F)F)n2)nn1-c1ncccc1Cl` [Example 209], the pest or weed control at 100 g/ha in series [1] (setting [4]) and in series [2] was 100% each time. For the same molecule, the chromatographic logP in series [3] (setting [5]) turned out to be 4.12.

For `Cc1cc(I)cc(C(=O)NCc2ccccc2OC(F)F)c1NC(=O)c1cc(Cn2nnc(C(F)(F)C(F)(F)F)n2)nn1-c1ncccc1Cl` [Example 157], the pest or weed control at 100 g/ha in series [1] (setting [4]) and in series [2] was 100% in each case. In series [3] (setting [5]), the chromatographic logP was found to be 4.45.

Consider `Cc1cc(C#N)cc(C(=O)NCc2ccccc2)c1NC(=O)c1cc(Cn2nnc(C(F)(F)F)n2)nn1-c1ccccc1Cl` [Example 71], for which the pest or weed control at 100 g/ha in series [1] (setting [4]) and in series [2] was 100% each time. Further, the chromatographic logP in series [3] (setting [5]) worked out at 3.77.

Consider `Cc1cc(I)cc(C(=O)NCc2ccc(OC(F)(F)F)cc2)c1NC(=O)c1cc(Cn2nnc(C(F)(F)C(F)(F)F)n2)nn1-c1ncccc1Cl` [Example 148], for which the pest or weed control at 100 g/ha in series [1] (setting [4]) and in series [2] was 100% throughout. In series [3] (setting [5]), the chromatographic logP came to 4.85.

`Cc1cc(C#N)cc(C(=O)NCc2ccc(OC(F)(F)F)cc2)c1NC(=O)c1cc(Cn2nnc(C(F)(F)F)n2)nn1-c1ncccc1Cl` [Example 167]: the pest or weed control at 100 g/ha in series [1] (setting [4]) and in series [2] was 100% throughout. Besides, the chromatographic logP in series [3] (setting [5]) is 3.9.

Turning to `Cc1cc(C#N)cc(C(=O)NCc2ccc(OC(F)(F)F)cc2)c1NC(=O)c1cc(Cn2nnc(C(F)F)n2)nn1-c1ncccc1Cl` [Example 164], the pest or weed control at 100 g/ha in series [1] (setting [4]) and in series [2] was 100% each time. Also, the chromatographic logP in series [3] (setting [5]) worked out at 3.42.

`Cc1cc(Cl)cc(C(=O)N[C@H](C)c2ccc([N+](=O)[O-])cc2)c1NC(=O)c1cc(Cn2nnc(C(F)(F)F)n2)nn1-c1ncccc1Cl` [Example 128]: the pest or weed control at 100 g/ha in series [1] (setting [4]) and in series [2] was 100% in each case. In addition, the chromatographic logP in series [3] (setting [5]) amounted to 3.85.

For the molecule `Cc1cc(Cl)cc(C(=O)NC(C)c2cccc(F)c2)c1NC(=O)c1cc(Cn2nnc(C(F)(F)F)n2)nn1-c1ncccc1Cl` (stereo not drawn) [Example 143], the pest or weed control at 100 g/ha in series [1] and in series [2] was 100% throughout. This molecule also gave a chromatographic logP in series [3] (pH 2.7, log P) of 4.

Consider `Cc1cc(C#N)cc(C(=O)NC(C)c2ccccc2)c1NC(=O)c1cc(Cn2nnc(C(F)(F)F)n2)nn1-c1ccccc1Cl` (stereo not drawn) [Example 74], for which the pest or weed control at 100 g/ha in series [1] (setting [4]) and in series [2] was 100% in each case. Further, the chromatographic logP in series [3] (setting [5]) worked out at 3.68.

Turning to `Cc1cc(Cl)cc(C(=O)NCc2ccccc2C(F)(F)F)c1NC(=O)c1cc(Cn2nnc(C(F)(F)F)n2)nn1-c1ncccc1Cl` [Example 118], the pest or weed control at 100 g/ha in series [1] (setting [4]) and in series [2] was 100% in each case. The chromatographic logP in series [3] (setting [5]) was 4.21.
